Usually melting point stands for the temperature of the solid-liquid transition. As usually defined, the IC50 is the concentration at which inhibition is half-maximal. For orientation: Ki means a dissociation constant, usually derived from enzyme kinetics or from competition with a known ligand.

Results on 15 molecules are retold here after publication PMC8268238, “Seleno-Functionalization of Quercetin Improves the Non-Covalent Inhibition of M^pro and Its Antiviral Activity in Cells against SARS-CoV-2” (International Journal of Molecular Sciences, 2021).

The structures appear in SMILES notation. Where two headings read alike, the source gives them in different places. A value given as a limit tells only on which side of the number the result lay.

The test system of data set [1] is SARS-CoV-2. The conditions noted are these: for Inhibition of the virus-caused cytopathic effect (CPE) / toxicity in the cellular infection model (in words): Vero cells; for Inhibition of the virus-caused cytopathic effect (CPE): 2 days; for SARS-CoV-2-related CPE reduction (in words): tested at 100, 75, 50, 25 and 10 µM, judged at non-toxic concentrations; for toxicity in the cellular infection model (in words) / precipitation in the medium (in words): 100-10 µM; for precipitation in the medium (in words): culture medium. (Protection from cytopathic effect is a common read-out in antiviral testing.)

Data set [2] concerns the target SARS-CoV-2 M^pro (Severe acute respiratory syndrome coronavirus 2, UniProt P0DTD1). The experiment in a line: SARS-CoV-2 M^pro inhibition assay (FRET substrate). Type of data set: biochemical. The conditions noted are these: for IC50 / Ki: 0.2 μM enzyme, 20 μM substrate, pH 7, DMSO 2.5%; for IC50: equivalent to Ki^app; for Ki: intrinsic inhibition constant; for anti-M^pro inhibitory activity (in words): first-line screening at 100 μM. The method, then:
A continuous assay based on Förster resonance energy transfer (FRET) to measure in vitro the catalytic activity of M^pro was implemented by using the substrate (Dabcyl)KTSAVLQSGFRKME(Edans)-NH2 (Biosyntan GmbH, Berlin, Germany) The enzymatic reaction was initiated by adding substrate at 20 μM (final concentration) to the enzyme at 0.2 μM (final concentration) in a final volume of 100 μL. The reaction buffer was sodium phosphate 50 mM, pH 7, NaCl 150 mM, and DMSO 2.5%. Fluorescence emission was measured in a FluoDia T70 microplate reader (Photon Technology International, Birmingham, NJ, USA) for 20 min (excitation wavelength, 380 nm; emission wavelength, 500 nm). The initial slope of the time evolution curve of the fluorescence emission signal provided a direct quantification of the enzymatic activity.
The in vitro inhibition potency of the compounds against M^pro was assessed through the estimation of the inhibition constant, Ki, and the half-maximal inhibitory concentration, IC50, from experimental inhibition curves. Inhibition curves were obtained by measuring the enzyme activity (at fixed 0.2 μM enzyme concentration and fixed 20 μM substrate concentration) as a function of compound concentration (serial 2-fold dilution from 125 µM to 0 μM), maintaining the percentage of DMSO (2.5%) constant. The enzymatic activity was quantitated as the initial slope of the substrate fluorescence emission time evolution curve, and was plotted as a function of compound concentration. The ratio between the activity (slope) in the presence and absence of the compound provides the residual percentage of activity at a given compound concentration. Nonlinear regression analysis employing a simple inhibition model (considering inhibitor depletion due to enzyme binding) allowed us to estimate the apparent inhibition constant, Ki^app, for each compound according to Equation (1):(1) [EI]=1/2([I]T+[E]T+Kiapp−([I]T+[E]T+Kiapp)^2−4[E]T[I]T)[I]=[I]T−[EI]=1/2([I]T−[E]T−Kiapp+([I]T+[E]T+Kiapp)^2−4[E]T[I]T)v([I])/v([I]=0)=1−[EI]/[E]T=1/1+[I]/Kiapp, where [EI] is the concentration of the enzyme–inhibitor complex, [E]T and [I]T are the total concentrations of the enzyme and the inhibitor, Ki^app is the apparent inhibition constant for the inhibitors (quercetin and derivatives), [I] is the concentration of the free inhibitor, and v is the initial slope of the enzymatic activity trace at a given (free) inhibitor concentration [I] (or total inhibitor concentration [I]T). No approximation for the free inhibitor concentration (e.g., assuming to be equal to the total inhibitor concentration) was made, thus having general validity for any total enzyme and inhibitor concentration and any value of the inhibition constant (even for tight-binding inhibitors). In addition, if the inhibitor acts through a purely competitive mechanism, the previous equation can be substituted by Equation (2):(2) v([I])/v([I]=0)=1/1+[I]/Kiapp=1/1+[I]/Ki(1+[S]/Km), where Ki is the intrinsic (i.e., substrate concentration-independent) inhibition constant, Km is the Michaelis–Menten constant for the enzyme–substrate interaction, and [S] is the substrate concentration. Because Km and [S] are known, the intrinsic inhibition constant can be determined. Furthermore, approximating the free compound concentration by the total compound concentration and neglecting ligand depletion, the Ki^app in Equation (2) is equivalent to the IC50, as reported in Table 3. However, it should be emphasized that the IC50 is an assay-dependent inhibition potency index (among other parameters, it depends on the enzyme and substrate concentrations, as well as on the Km); thus, the intrinsic inhibition constant is a better inhibition potency index. Uncertainties have been reported as 95% profile likelihood asymmetric confidence intervals, as especially recommended for equilibrium constants (i.e., binding association/dissociation constants and inhibition constants).

Data set [3] concerns SARS-CoV-2. The experiment in a line: Inhibition of SARS-CoV-2 replication in Vero cells by RT-qPCR. The data set is classed as cell-based. The conditions noted are these: Vero cells; Figure S1. On the technique in general: Real-time PCR tracks product formation cycle by cycle.

Regarding `O=c1cc(-c2ccccc2)oc2cc(OCC[Se]Cc3ccccc3)cc(O)c12`, the melting point lay in the range of 115.4 to 118.2 °C.
The molecule `O=c1c(O)c(-c2ccc(O)c(O)c2)oc2c([Se]c3ccccc3)c(O)c([Se]c3ccccc3)c(O)c12` [compound 3, 2-(3,4-Dihydroxyphenyl)-3,5,7-trihydroxy-6,8-bis(phenylselanyl)-4H-chromen-4-one] yielded a melting point of 206 to 210 °C. The “Inhibition of the virus-caused cytopathic effect (CPE)” value (shortened to “Inhibition … (CPE)”) in data set [1] (10 µM) is on record as “-”. Moreover, the “Inhibition … (CPE)” value in data set [1] (25 µM) is reported as “-”. Besides, the “Inhibition … (CPE)” value in data set [1] (50 µM) was “tox/-”. Also, the “Inhibition … (CPE)” value in data set [1] (75 µM) is given as “tox”. In data set [1] (100 µM), the “Inhibition … (CPE)” value was “tox”. Besides, in data set [2], the IC50 is 13 µM and the affinity, expressed as Ki, was 4.6 µM.
As to `Cc1cc(C)c([Se]CCOc2cc(O)c3c(=O)cc(-c4ccccc4)oc3c2)c(C)c1`, the melting point was 135.7 to 138.4 °C.
`CCCC[Se]c1c(O)cc(O)c2c(=O)c(O)c(-c3ccc(O)c(O)c3)oc12` [2c, 2-(3,4-Dihydroxyphenyl)-3,5,7-trihydroxy-8-(butylselenyl)-4H-chromen-4-one]: the melting point lay in the range of 159 to 163 °C. In data set [2], the IC50 was determined as 24 µM and the Ki amounted to 8.6 µM.
Turning to `CCCCCCCCCC[Se]c1c(O)cc(O)c2c(=O)c(O)c(-c3ccc(O)c(O)c3)oc12` [2b, 2-(3,4-Dihydroxyphenyl)-3,5,7-trihydroxy-8-(decylselenyl)-4H-chromen-4-one], the melting point is 155 to 159 °C. Further, in data set [2], the IC50 is over 100 µM, the Ki was over 100 µM and the “anti-M^pro inhibitory activity (in words)” value is given as “devoid of any noticeable anti-M^pro inhibitory activity”.
`O=c1c(O)c(-c2ccc(O)c(O)c2)oc2c([Se]c3ccccc3)c(O)cc(O)c12` [2a, 2-(3,4-Dihydroxyphenyl)-3,5,7-trihydroxy-8-(phenylselanyl)-4H-chromen-4-one] had a melting point of 211 to 213 °C. Also, the “Inhibition … (CPE)” value in data set [1] (10 µM) is listed as “-”. The “Inhibition … (CPE)” value in data set [1] (25 µM) is recorded as “-”. Further, the “Inhibition … (CPE)” value in data set [1] (50 µM) is on record as “+”. In data set [1] (75 µM), the “Inhibition … (CPE)” value was “tox”. The “Inhibition … (CPE)” value in data set [1] (100 µM) is “tox”. Further, the “SARS-CoV-2-related CPE reduction (in words)” value in data set [1] is listed as “inhibited the development of the CPE”. Also, in data set [3], the “inhibition of SARS-CoV-2 replication by RT-qPCR (in words)” value is on record as “did not indicate any inhibition”. Moreover, in data set [2], the IC50 stood at 5.1 µM and the Ki stood at 1.8 µM.
As to `COc1ccccc1[Se]CCOc1cc(O)c2c(=O)cc(-c3ccccc3)oc2c1`, the melting point was in the range of 132.9 to 135.6 °C.
`O=c1cc(-c2ccccc2)oc2cc(OCC[Te]c3ccccc3)cc(O)c12` [compound 8, 5-Hydroxy-2-phenyl-7-[2-(phenyltellanyl)ethoxy]-4H-chromen-4-one]: the melting point was in the range of 128 to 129 °C. Moreover, the “Inhibition … (CPE)” value in data set [1] (75 µM) was “prec/tox”. The “Inhibition … (CPE)” value in data set [1] (100 µM) was “prec/tox”. In data set [1], the “toxicity in the cellular infection model (in words)” value was “toxic”, the “precipitation in the medium (in words)” value is “precipitated” and the “SARS-CoV-2-related CPE reduction (in words)” value is “No CPE reduction”. Moreover, in data set [2], the IC50 came to 3.3 µM and the Ki was 1.1 µM.
The molecule `O=c1cc(-c2ccccc2)oc2cc(OCC[Te]c3ccc(Cl)cc3)cc(O)c12` [compound 9, 7-{2-[(4-Chlorophenyl)tellanyl]ethoxy}-5-hydroxy-2-phenyl-4H-chromen-4-one] came in with a melting point of 140.3 to 143 °C. Moreover, the “Inhibition … (CPE)” value in data set [1] (10 µM) was “-”. Moreover, in data set [1] (25 µM), the “Inhibition … (CPE)” value is reported as “-”. The “Inhibition … (CPE)” value in data set [1] (75 µM) is “prec/-”. The “Inhibition … (CPE)” value in data set [1] (100 µM) is given as “prec/tox”. Besides, in data set [1], the “toxicity in the cellular infection model (in words)” value is “toxic”, the “precipitation in the medium (in words)” value is “precipitated” and the “SARS-CoV-2-related CPE reduction (in words)” value was “No CPE reduction”. In data set [2], the IC50 came to 2.2 µM and the Ki worked out at 0.77 µM.
Molecule `O=c1cc(-c2ccccc2)oc2cc(OCC[Se]c3cccc(C(F)(F)F)c3)cc(O)c12` showed a melting point of 154.1 to 157.7 °C.
The molecule `COc1ccc([Se]c2c(O)cc(O)c3c(=O)c(O)c(-c4ccc(O)c(O)c4)oc23)cc1` [2e, 2-(3,4-Dihydroxyphenyl)-3,5,7-trihydroxy-8-((4-methoxyphenyl)selanyl)-4H-chromen-4-one] yielded a melting point of 194 to 197 °C. Also, in data set [1] (10 µM), the “Inhibition … (CPE)” value is “-”. In addition, the “Inhibition … (CPE)” value in data set [1] (25 µM) is recorded as “-”. In data set [1] (50 µM), the “Inhibition … (CPE)” value was “tox/-”. In data set [1] (75 µM), the “Inhibition … (CPE)” value is given as “tox”. Also, the “Inhibition … (CPE)” value in data set [1] (100 µM) is on record as “tox”. In data set [2], the IC50 was determined as 3 µM and the Ki was determined as 1.1 µM.
Consider `Cc1ccccc1[Se]CCOc1cc(O)c2c(=O)cc(-c3ccccc3)oc2c1`, for which the melting point lay within 123.9 to 127.4 °C.
With `O=c1cc(-c2ccccc2)oc2cc(OCC[Se]c3ccccc3)cc(O)c12` [7a, 5-Hydroxy-2-phenyl-7-(2-(phenylselanyl)ethoxy)-4H-chromen-4-one], the melting point fell in the range of 155 to 156 °C. Also, in data set [2], the IC50 is over 100 µM and the Ki is over 100 µM.
For the molecule `O=c1cc(-c2ccccc2)oc2c([Se]c3ccccc3)c(O)c([Se]c3ccccc3)c(O)c12` [compound 6, 5,7-Dihydroxy-2-phenyl-6,8-bis(phenylselanyl)-4H-chromen-4-one], the melting point was 188.7 to 190.6 °C. In data set [2], the IC50 is over 100 µM, the Ki was over 100 µM and the “anti-M^pro inhibitory activity (in words)” value is listed as “devoid of any noticeable anti-M^pro inhibitory activity”.
`O=c1cc(-c2ccccc2)oc2cc(OCC[Se]c3ccc(F)cc3)cc(O)c12` gave a melting point of 171.1 to 173.7 °C.
